Source: patent publication US10239849B2 (Merck Sharp & Dohme Corp., priority 2015, dated 2019)

Experiments:
[1] = molecular target: T1, glutathione-S-transferase (GST) tagged LXRbeta LBD (ligand binding domain) (Homo sapiens, UniProt P55055); test: LanthaScreen TR-FRET Liver X Receptor Coactivator Assay, LXR beta-LBD; type: biochemical; details: for Emax: efficacy in relation to reference dual agonist T1317, read-out: LXR beta activity at max dose (%) (Emax); for EC50: potency (Inflection Point) of co-activator recruitment, TR-FRET, read-out: LXR beta IP
T1 construct: purchased Invitrogen pv4658.pps
T1 sequence (P55055 222-460 limits assumed): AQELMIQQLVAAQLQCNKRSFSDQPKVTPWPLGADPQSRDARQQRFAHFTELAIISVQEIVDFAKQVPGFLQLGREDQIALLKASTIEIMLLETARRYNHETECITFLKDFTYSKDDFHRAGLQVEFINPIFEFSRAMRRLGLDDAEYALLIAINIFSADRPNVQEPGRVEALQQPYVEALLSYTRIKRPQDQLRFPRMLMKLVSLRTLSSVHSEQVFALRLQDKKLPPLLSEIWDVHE
Method in brief: (§1)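 Compound + LBD (alpha or beta); add fluorescein coactivator peptide/Tb anti-GST Ab mix; incubate RT; read TR-FRET.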

[2] = molecular target: T2, glutathione-S-transferase (GST) tagged LXRalpha LBD (ligand binding domain) (Homo sapiens, UniProt Q13133); test: LanthaScreen TR-FRET Liver X Receptor Coactivator Assay, LXR alpha-LBD; type: biochemical; details: for Emax: efficacy in relation to reference dual agonist T1317, read-out: LXR alpha activity at max dose (%) (Emax); for EC50: potency (Inflection Point) of co-activator recruitment, TR-FRET, read-out: LXR alpha IP
T2 construct: purchased Invitrogen pv4655
T2 sequence (Q13133 209-447 limits assumed): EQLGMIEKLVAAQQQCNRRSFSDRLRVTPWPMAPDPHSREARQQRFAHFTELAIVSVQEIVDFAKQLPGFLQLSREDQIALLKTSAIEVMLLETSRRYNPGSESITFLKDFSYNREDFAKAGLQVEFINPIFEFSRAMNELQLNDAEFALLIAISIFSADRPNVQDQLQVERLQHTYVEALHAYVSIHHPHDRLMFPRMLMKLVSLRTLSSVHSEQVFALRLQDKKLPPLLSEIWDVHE
Method in brief: as §1

Work on `CNC(=O)c1ccc(-c2cnc(N3CCN(C(=O)C(C)(C)C)CC3)c(C#N)c2)cc1Cl` [Example 6-2, 2-chloro-4-{5-cyano-6-[4-(2,2-dimethylpropanoyl)piperazin-1-yl]pyridin-3-yl}-N-methylbenzamide] yielded an Emax [1] of 98%, an EC50 [1] of 329 nM and an Emax [2] of 34%. It also gave an EC50 [2] of 11300 nM.
`CN(CCn1cncn1)C(=O)c1ccc(-c2cnc(N3CCN(C(=O)C(C)(C)c4ccccc4)CC3)c(C#N)c2)cc1Cl` [Example 6-3, 2-chloro-4-{5-cyano-6-[4-(2-methyl-2-phenylpropanoyl)piperazin-1-yl]pyridin-3-yl}-N-methyl-N-[2-(1H-1,2,4-triazol-1-yl)ethyl]benzamide] was tested, and the Emax [1] was 113%, the EC50 [1] was 30 nM and the Emax [2] was 33%. It also gave an EC50 [2] of 2420 nM.
`CN(C)C(=O)c1c(Cl)cc(-c2cnc(N3CCN(C(=O)[C@](O)(c4ccccc4)C(F)(F)F)CC3)c(C#N)c2)cc1Cl` [Example 7-1, 2,6-dichloro-4-(5-cyano-6-{4-[(2R)-3,3,3-trifluoro-2-hydroxy-2-phenylpropanoyl]piperazin-1-yl}pyridin-3-yl)-N,N-dimethylbenzamide] showed an Emax [1] of 73%, an EC50 [1] of 3 nM and an Emax [2] of 53%. The EC50 [2] was 186 nM.
Compound `CC(C)C(=O)C(=O)N1CCN(c2ncc(-c3cc(Cl)c(C(=O)N(C)C)c(Cl)c3)cc2C#N)CC1` [Example 7-2, 2,6-dichloro-4-{5-cyano-6-[4-(3-methyl-2-oxobutanoyl)piperazin-1-yl]pyridin-3-yl}1-N,N-dimethylbenzamide] has an Emax [1] of 88%, an EC50 [1] of 32 nM and an Emax [2] of 30%. The EC50 [2] was 2040 nM.
In the case of `CN(C)C(=O)c1c(Cl)cc(-c2cnc(N3CC4CCC(C3)N4C(=O)OC(C)(C)C)c(C#N)c2)cc1Cl` [Example 7-3, tert-butyl 3-(3-cyano-5-(3,5-dichloro-4-(dimethylcarbamoyl)phenyl)pyridin-2-yl)-3,8-diazabicyclo[3.2.1]octane-8-carboxylate], the Emax [1] is reported as 67%, the EC50 [1] is reported as 13 nM and the Emax [2] is reported as 21%. For the same compound, the EC50 [2] was 151 nM.
`CN(C)C(=O)c1c(Cl)cc(-c2cnc(N3CC4CCC3CN4C(=O)OC(C)(C)C)c(C#N)c2)cc1Cl` (centres unmarked) [Example 7-4, tert-butyl 5-(3-cyano-5-(3,5-dichloro-4-(dimethylcarbamoyl)phenyl)pyridin-2-yl)-2,5-diazabicyclo[2.2.2]octane-2-carboxylate] showed an Emax [1] of 62%, an EC50 [1] of 49 nM and an Emax [2] of 11%. It also gave an EC50 [2] of 671 nM.
With `CN(C)C(=O)c1ccc(-c2ccc(N3CCCN(C(=O)OC(C)(C)C)CC3)cc2)cc1Cl` [Example 8-1, tert-butyl 4-[3′-chloro-4′-(dimethylcarbamoyl)biphenyl-4-yl]-1,4-diazepane-1-carboxylate] the Emax [1] was 86%, the EC50 [1] was 63 nM and the Emax [2] was 55%. It also gave an EC50 [2] of 936 nM.
Compound `COc1cc(-c2cnc(N3CCN(C(=O)OC(C)(C)C)CC3)c(C#N)c2)ccc1C(=O)N(C)C` [Example 8-2, tert-butyl 4-{3-cyano-5-[4-(dimethylcarbamoyl)-3-methoxyphenyl]pyridin-2-yl}piperazine-1-carboxylate] has an Emax [1] of 73%, an EC50 [1] of 846 nM and an Emax [2] of 28%. It also gave an EC50 [2] of 25800 nM.
For `CN(C)C(=O)c1ccc(-c2ccc(N3CC4CCC(C3)N4C(=O)OC(C)(C)C)cc2)cc1Cl` [Example 8-3, tert-butyl 3-[3′-chloro-4′-(dimethylcarbamoyl)biphenyl-4-yl]-3,8-diazabicyclo[3.2.1]octane-8-carboxylate], the Emax [1] was 87%, the EC50 [1] was 189 nM and the Emax [2] was 64%. For the same compound, the EC50 [2] was 11700 nM.
`CN(C)C(=O)c1ccc(-c2ccc(N3CC4CCC3CN4C(=O)OC(C)(C)C)cc2)cc1Cl` (centres unmarked) [Example 8-4, tert-butyl 5-[3′-chloro-4′-(dimethylcarbamoyl)biphenyl-4-yl]-2,5-diazabicyclo[2.2.2]octane-2-carboxylate] showed an Emax [1] of 78%, an EC50 [1] of 32 nM and an Emax [2] of 73%. For the same compound, the EC50 [2] was 1500 nM.
Work on `CN(C)C(=O)c1ccc(-c2cnc(N3CC4CC3CN4C(=O)OC(C)(C)C)c(C#N)c2)cc1Cl` (centres unmarked) [Example 8-5, tert-butyl 5-{5-[3-chloro-4-(dimethylcarbamoyl)phenyl]-3-cyanopyridin-2-yl}-2,5-diazabicyclo[2.2.1]heptane-2-carboxylate] yielded an Emax [1] of 53%, an EC50 [1] of 252 nM and an Emax [2] of 37%. For the same compound, the EC50 [2] was 16800 nM.
`CC1CN(c2ncc(-c3ccc(C(=O)N(C)C)c(Cl)c3)cc2C#N)CCN1C(=O)OC(C)(C)C` (centres unmarked) [Example 8-6, tert-butyl 4-{5-[3-chloro-4-(dimethylcarbamoyl)phenyl]-3-cyanopyridin-2-yl}-2-methylpiperazine-1-carboxylate] showed an Emax [1] of 78%, an EC50 [1] of 57 nM and an Emax [2] of 68%. The EC50 [2] was 12700 nM.
`CN(C)C(=O)c1ccc(-c2cnc(N3CC4CCC(C3)N4C(=O)OC(C)(C)C)c(C#N)c2)cc1Cl` [Example 8-7, tert-butyl 3-{5-[3-chloro-4-(dimethylcarbamoyl)phenyl]-3-cyanopyridin-2-yl}-3,8-diazabicyclo[3.2.1]octane-8-carboxylate] was tested, and the Emax [1] was 71%, the EC50 [1] was 31 nM and the Emax [2] was 52%. The EC50 [2] was 1640 nM.
`CN(C)C(=O)c1ccc(-c2cnc(N3CC4CCC3CN4C(=O)OC(C)(C)C)c(C#N)c2)cc1Cl` (centres unmarked) [Example 8-8, tert-butyl 5-{5-[3-chloro-4-(dimethylcarbamoyl)phenyl]-3-cyanopyridin-2-yl}-2,5-diazabicyclo[2.2.2]octane-2-carboxylate] gave an Emax [1] of 68%, an EC50 [1] of 64 nM and an Emax [2] of 38%. It also gave an EC50 [2] of 882 nM.
For `CN(C)C(=O)c1ccc(-c2cnc(N3CCN(C(=O)OC(C)(C)C)CC3)c(C#N)c2)cc1C(F)(F)F` [Example 8-9, tert-butyl 4-{3-cyano-5-[4-(dimethylcarbamoyl)-3-(trifluoromethyl)phenyl]pyridin-2-yl}piperazine-1-carboxylate], the Emax [1] was 73%, the EC50 [1] was 1660 nM and the Emax [2] was 30%. It also gave an EC50 [2] of 10800 nM.
Compound `CN(C)C(=O)c1ccc(-c2ccc(N3CC4CCC(C3)N4C(=O)OC(C)(C)C)c(Cl)c2)cc1Cl` [Example 8-10, tert-butyl 3-[3,3′-dichloro-4′-(dimethylcarbamoyl)biphenyl-4-yl]-3,8-diazabicyclo[3.2.1]octane-8-carboxylate] has an Emax [1] of 63%, an EC50 [1] of 70 nM and an Emax [2] of 64%. It also gave an EC50 [2] of 660 nM.
With `CN(C)C(=O)c1ccc(-c2cnc(N3C4CCC3C3CCC4N3C(=O)OC(C)(C)C)c(C#N)c2)cc1Cl` [Example 8-11, tert-butyl 10-{5-[3-chloro-4-(dimethylcarbamoyl)phenyl]-3-cyanopyridin-2-yl}-9,10-diazatricyclo[4.2.1.1~2,5~]decane-9-carboxylate] the Emax [1] was 57%, the EC50 [1] was 1050 nM and the Emax [2] was 41%. For the same compound, the EC50 [2] was 10900 nM.
`CN(C)C(=O)c1ccc(-c2cnc(N3CCN(C(=O)OC(C)(C)C)C(c4ccccc4)C3)c(C#N)c2)cc1Cl` (centres unmarked) [Example 8-12, tert-butyl 4-{5-[3-chloro-4-(dimethylcarbamoyl)phenyl]-3-cyanopyridin-2-yl}-2-phenylpiperazine-1-carboxylate] showed an Emax [1] of 70%, an EC50 [1] of 6 nM and an Emax [2] of 40%. The EC50 [2] was 954 nM.
For `CN(C)C(=O)c1ccc(-c2cnc(N3CCN(C(=O)OC(C)(C)C)CC3Cc3ccccc3)c(C#N)c2)cc1Cl` (centres unmarked) [Example 8-13, tert-butyl 3-benzyl-4-{5-[3-chloro-4-(dimethylcarbamoyl)phenyl]-3-cyanopyridin-2-yl}piperazine-1-carboxylate], the Emax [1] was 120%, the EC50 [1] was 18 nM and the Emax [2] was 78%. The EC50 [2] was 538 nM.
`CN(C)C(=O)c1ccc(-c2ccc(N3CC4CCC(C3)N4S(=O)(=O)c3c(Cl)cccc3Cl)cc2)cc1Cl` [Example 8-14, 3-chloro-4′-{8-[(2,6-dichlorophenyl)sulfonyl]-3,8-diazabicyclo[3.2.1]oct-3-yl}-N,N-dimethylbiphenyl-4-carboxamide] was tested, and the Emax [1] was 118%, the EC50 [1] was 76 nM and the Emax [2] was 37%. It also gave an EC50 [2] of 3470 nM.
`CN(C)C(=O)c1ccc(-c2ccc(N3CCN(C(=O)OC(C)(C)C)CC3)c(C#N)c2)cc1Cl` [Example 8-15, tert-butyl 4-[3′-chloro-3-cyano-4′-(dimethylcarbamoyl)biphenyl-4-yl]piperazine-1-carboxylate] was tested, and the Emax [1] was 81%, the EC50 [1] was 177 nM and the Emax [2] was 54%. For the same compound, the EC50 [2] was 3890 nM.
Compound `CN(C)C(=O)c1ccc(-c2ccc(N3CC4CCC(C3)N4S(=O)(=O)c3c(Cl)cccc3Cl)c(Cl)c2)cc1Cl` [Example 8-16, 3,3′-dichloro-4′-{8-[(2,6-dichlorophenyl)sulfonyl]-3,8-diazabicyclo[3.2.1]oct-3-yl}-N,N-dimethylbiphenyl-4-carboxamide] has an Emax [1] of 82%, an EC50 [1] of 37 nM and an Emax [2] of 79%. It also gave an EC50 [2] of 569 nM.
`CCc1cc(-c2cnc(N3CCN(C(=O)OC(C)(C)C)CC3)c(C#N)c2)ccc1C(=O)N(C)C` [Example 8-17, tert-butyl 4-{3-cyano-5-[4-(dimethylcarbamoyl)-3-ethylphenyl]pyridin-2-yl}piperazine-1-carboxylate] showed an Emax [1] of 71%, an EC50 [1] of 424 nM and an Emax [2] of 41%. It also gave an EC50 [2] of 7470 nM.
